{
  "source": "patent US20220008567A1",
  "about": "“LIQUIDLY INJECTABLE, SELF-STABILIZING BIOPOLYMERS FOR THE DELIVERY OF RADIONUCLIDE” (priority 2018, published 2022)",
  "key": {"BxPc3 cells [1]": {"system": "BxPc3 cells", "experiment": "MTS cell proliferation assay (in vitro cytotoxicity)", "procedure": "(§1) In vitro cytotoxicity assessment. All cell lines were cultured in monolayers in sterile, vented culture flasks (Corning). Cells were passaged, collected, and then counted with 0.4% Trypan Blue (Thermo Fisher Scientific). Cells were then formulated in their respective media and plated in 96-well plates at 5,000 cells per well in 100 μL. After allowing cells to incubate at 37° C. for 12 h, drugs were then added to the wells. Each drug was formulated at the highest concentration in the cell media and then serially diluted. A PTX equivalent concentration between 10-4 and 10-12 M of each construct was plated in quadruplicate and allowed to incubate for 72 h. 20 μL of CellTiter 96® AQueoous One solution (Promega) was then added to each well. After 1.5 h, the absorbance of each plate was read at 490 nm and normalized to untreated cells to determine the relative cell survival. The half effective concentration (EC50) was calculated as the inflection between the curve's maxima and minima."}, "BxPc3 cells [2]": {"system": "BxPc3 cells", "experiment": "Cell cycle distribution by propidium iodide flow cytometry (G2/M arrest)", "assay_type": "cell-based, human", "details": "1 nM of equivalent paclitaxel", "description": "As radiation sensitization is driven by late G2/M arrest, the effects of paclitaxel on cell cycle progression were examined. BxPc3 cells were treated in vitro with 1 nM of equivalent paclitaxel, stained with propidium iodide to measure relative DNA quantities, and analyzed by flow cytometry to assess the cell cycle distribution over time."}, "[3]": {"system": "BxPc3, MIA PaCa-2 and AsPc-1 pancreatic cells", "experiment": "In vitro cytotoxicity by MTS across pancreatic cell lines", "details": "FIG. 5", "procedure": "as §1"}},
  "note": "pEC50: −log10 of the molar value.",
  "data": [
    {"smiles": "CC(=O)O[C@H]1C(=O)[C@@]2(C)[C@H]([C@H](OC(=O)c3ccccc3)[C@]3(O)C[C@H](OC(=O)[C@H](O)[C@@H](NC(=O)c4ccccc4)c4ccccc4)C(C)=C1C3(C)C)[C@]1(OC(C)=O)CO[C@@H]1C[C@@H]2O", "note": "[PTX, paclitaxel]", "values": [
      {"measurement": "in vitro cytotoxicity", "setting": "BxPc3 cells [1]; FIG. 4A", "result": "nanomolar"},
      {"measurement": "pEC50", "setting": "BxPc3 cells [1]; Homo sapiens, BXPC-3, 72 h, read-out: relative half-inhibitory concentration (EC50)", "result": 8.43},
      {"measurement": "peak proportion of cell population in G2/M phase", "setting": "BxPc3 cells [2]", "result": 37.9, "unit": "%"},
      {"measurement": "time to maximum proportion of G2/M cells", "setting": "BxPc3 cells [2]", "result": 12, "unit": "h"},
      {"measurement": "cytotoxicity in each cell line", "setting": "[3]", "result": "nanomolar cytotoxicity"}
    ]}
  ]
}
